Key:
human skin tissue = test: Histamine release by human skin discs stimulated by substance P (ELISA); assay type: cell-based
Description: Test were carried out on peritoneal mastocytes of rat stimulated by the substance P (10 μM), or on human skin tissue.
The skin tissue assay system was prepared from normal adult skin collected after abdominal plastic surgery. The subject was a person (subject M1085). The skin tissue specimen was rinsed in Krebs bicarbonate solution consisting of: NaCl 118 mM; KCl 5.4 mM; NaH2PO4 1 mM; MgSO4 1.2 mM, CaCl2 1.9 mM; NaHCO3 25 mM and D-glucose 11.1 mM. Skin discs of about 8 mm of diameter were performed. Skin discs were cultured in RPMI 1640 medium supplemented with penicillin (100 UI/ml), streptomycin (110 μg/ml) and 2 mM glutamine. Skin discs were maintained at 37° C. in a humidified incubator under a 5% Co2/95% air atmosphere. Test products were incubated with the human skin discs and 100 μM of substance P for 2 hours at 37° C.
At the end of the incubation, histamine released by the human skin discs was quantified by ELISA (IMMUNOTECH). The results were expressed as pmoles of histamine released per gram of skin. Data groups (control and treated groups) were compared using a one-way analysis of variance (ANOVA 1, p<0.05), following by a Dunnett's test (p<0.05).

[1] = system: peritoneal mastocytes of rat; test: Histamine release by peritoneal mastocytes of rat stimulated by substance P (spectrofluorimetry with OPT); assay type: cell-based; settings: 10 μg/ml Ca-panthothenate and 7.5 μg/ml glycine, taken separately or together; substance P 10 μM
Description: Peritoneal mastocytes of rat were incubated with the test products and the substance P for 2 minutes at 37° C. in the following medium: sodium phosphate buffer 4 mM; potassium phosphate buffer 2.7 mM; NaCl 0.145 M; KCl 2.7 mM; CaCl2 0.9 mM; BSA (bovine serum albumin 0.175% (w/v). At the end of the incubation, histamine released by the mastocytes was quantified by spectrofluorimetry with ortho-phthalaldehyde (OPT) (R. Hakanson, A. I. Ronnberg and K. Sjolund, Analy. Biochem., 47,1972, pp. 356-370). The measurements were carried out by means of a multiplate spectrofluorimeter (Cytofluor 2350, MILLIPORE). Data groups (control and treated groups) were compared using a one-way analysis of variance (ANOVA 1, p<0.05), following by a Dunnett' test (p<0.05).

mastocytes = settings: cited from earlier work

| Compound | Effect of addition of glycine to Ca-pantothenate on inhibition of histamine release (in words) (human skin tissue; glycine 75 μg/ml added to Ca-pantothenate 100 μg/ml) | Inhibition of histamine release (in words) [1] | Histamine release by mastocytes (in words) (mastocytes) | Inhibition of histamine release (in words) (human skin tissue; already at a concentration of 25 μg/ml) |
| --- | --- | --- | --- | --- |
| NCC(=O)O [Glycine] | further improves such inhibition | do not act as inhibitors | inhibits histamine release by mastocytes |  |
| calcium pantothenate [Ca-pantothenate] |  | do not act as inhibitors |  | acts as inhibitor of the histamine release |

— patent US6410037B1, “Anti-pruritic compositions” (Roche Consumer Health AG, priority 1999, dated 2002)
